Measured values as given in patent US20240175819A1, “DIAGNOSTIC TEST” (THE UNIVERSITY OF WARWICK, priority 2022, published 2024).

Test system: E. coli
Experiment: Hydrogel biosensors with encapsulated antibiotic spiked with E. coli; inhibition of bacterial growth by antibiotic release (FIG. 6)
Format: cell-based
Details: antibiotic encapsulated within crosslinked hydrogel network, photographs
Text: FIG. 6 is a series of photographs of biosensors each comprising a different antibiotic wherein bacterial growth is inhibited as a result of antibiotic release from the hydrogel network;
Referring now to FIG. 6, there is shown photographs of three biosensors 6A, 6B, 6C each comprising a different antibiotic encapsulated within the crosslinked hydrogel network. Biosensor 6A comprises the antibiotic chloramphenicol, biosensor 6B comprises the antibiotic kanamycin, and biosensor 6C comprises the antibiotic ampicillin. The biosensors 6A, 6B, 6C were spiked with E. coli. In each case, it is shown that there is antibacterial activity in the area surrounding the spiked portion of hydrogel. Therefore, in these cases, E. coli. is shown to be susceptible to the antibiotics encapsulated within the biosensors 6A, 6B, 6C.

SMILES	susceptibility of E. coli to the antibiotic encapsulated within the biosensor (antibacterial activity in the area surrounding the spiked portion of hydrogel)
CC1(C)S[C@@H]2[C@H](NC(=O)[C@H](N)c3ccccc3)C(=O)N2[C@H]1C(=O)O [ampicillin]	susceptible
O=C(N[C@H](CO)[C@H](O)c1ccc([N+](=O)[O-])cc1)C(Cl)Cl [chloramphenicol]	susceptible
